Paper PMC9481151, “Discovery of new symmetrical and asymmetrical nitrile-containing 1,4-dihydropyridine derivatives as dual kinases and P-glycoprotein inhibitors: synthesis, in vitro assays, and in silico studies” (Journal of Enzyme Inhibition and Medicinal Chemistry, 2022)

Columns and labels:
HCT-116 cells = test: In vitro cytotoxicity; settings: Homo sapiens, HCT-116, read-out: Cytotoxicity IC50, HCT-116
[1] = system: drug-resistant HCT-116/ADR cells; test: Potentiation of DOX cytotoxicity (reversal DOX effect, P-gp modulation); type: cell-based, human; settings: IC50 (DOX) without modulator / IC50 (DOX) with modulator
HCT-116/ADR cells = test: cells; settings: Homo sapiens, HCT-116, read-out: Cytotoxicity IC50, HCT-116/ADR
HER-2 = HER-2 (Homo sapiens, UniProt P04626); test: HER-2 kinase inhibitory activity; type: biochemical; settings: (IC50 lapatinib/IC50 Compound)*100
BTK = BTK (Homo sapiens, UniProt Q06187); test: BTK inhibitory activity; type: biochemical; settings: (IC50 lapatinib/IC50 Compound)*100
BTK, sequence (Q06187 whole entry): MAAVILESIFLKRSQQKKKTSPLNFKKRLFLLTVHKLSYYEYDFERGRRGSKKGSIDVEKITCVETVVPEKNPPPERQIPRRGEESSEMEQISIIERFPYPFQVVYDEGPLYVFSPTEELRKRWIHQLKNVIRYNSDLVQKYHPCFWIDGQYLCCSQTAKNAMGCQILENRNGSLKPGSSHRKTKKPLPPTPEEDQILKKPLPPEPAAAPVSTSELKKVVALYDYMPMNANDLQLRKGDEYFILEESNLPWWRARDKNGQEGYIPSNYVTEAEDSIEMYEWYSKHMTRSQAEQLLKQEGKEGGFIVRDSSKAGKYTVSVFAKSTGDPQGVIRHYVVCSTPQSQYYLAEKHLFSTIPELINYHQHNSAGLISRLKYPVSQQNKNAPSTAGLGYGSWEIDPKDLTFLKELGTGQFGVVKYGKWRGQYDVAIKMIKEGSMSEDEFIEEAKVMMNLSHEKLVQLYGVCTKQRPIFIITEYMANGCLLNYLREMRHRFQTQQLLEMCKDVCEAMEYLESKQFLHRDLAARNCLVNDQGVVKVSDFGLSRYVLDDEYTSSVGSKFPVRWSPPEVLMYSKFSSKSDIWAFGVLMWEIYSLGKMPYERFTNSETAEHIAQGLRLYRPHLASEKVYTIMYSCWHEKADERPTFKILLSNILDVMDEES

HER-2, sequence (P04626 23-1255): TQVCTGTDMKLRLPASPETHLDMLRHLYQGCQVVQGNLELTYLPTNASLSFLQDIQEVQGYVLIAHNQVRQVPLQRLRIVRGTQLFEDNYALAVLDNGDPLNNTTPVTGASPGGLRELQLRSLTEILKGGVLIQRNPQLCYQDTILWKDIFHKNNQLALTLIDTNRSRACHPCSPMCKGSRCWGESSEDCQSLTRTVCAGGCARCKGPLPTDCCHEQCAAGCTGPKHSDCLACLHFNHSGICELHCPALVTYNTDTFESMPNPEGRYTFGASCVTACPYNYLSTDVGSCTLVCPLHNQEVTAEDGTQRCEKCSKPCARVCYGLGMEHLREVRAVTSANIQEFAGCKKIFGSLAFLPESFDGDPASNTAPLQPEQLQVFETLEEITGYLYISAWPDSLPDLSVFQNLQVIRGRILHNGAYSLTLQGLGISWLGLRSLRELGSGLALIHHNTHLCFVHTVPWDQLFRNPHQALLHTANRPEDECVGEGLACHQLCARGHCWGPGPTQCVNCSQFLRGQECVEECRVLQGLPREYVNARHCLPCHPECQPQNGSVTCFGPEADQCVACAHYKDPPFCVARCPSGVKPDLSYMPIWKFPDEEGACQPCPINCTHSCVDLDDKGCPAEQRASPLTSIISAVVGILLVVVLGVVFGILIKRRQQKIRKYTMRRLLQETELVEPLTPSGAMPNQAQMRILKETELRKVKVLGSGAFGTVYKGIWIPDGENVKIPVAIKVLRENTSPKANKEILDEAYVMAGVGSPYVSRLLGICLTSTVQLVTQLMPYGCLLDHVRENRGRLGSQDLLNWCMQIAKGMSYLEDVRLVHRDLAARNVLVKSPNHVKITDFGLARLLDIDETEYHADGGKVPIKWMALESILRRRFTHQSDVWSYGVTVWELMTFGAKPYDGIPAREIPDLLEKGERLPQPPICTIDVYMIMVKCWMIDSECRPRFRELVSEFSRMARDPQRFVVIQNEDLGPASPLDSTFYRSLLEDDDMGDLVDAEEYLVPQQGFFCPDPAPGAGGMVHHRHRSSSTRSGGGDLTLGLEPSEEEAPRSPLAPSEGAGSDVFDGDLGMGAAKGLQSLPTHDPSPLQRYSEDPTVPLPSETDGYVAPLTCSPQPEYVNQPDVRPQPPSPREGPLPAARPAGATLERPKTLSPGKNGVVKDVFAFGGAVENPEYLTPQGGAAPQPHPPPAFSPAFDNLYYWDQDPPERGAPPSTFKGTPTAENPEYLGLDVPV

Row | HER-2 Potency (HER-2) [%] | BTK Potency (BTK) [%] | Compound | IC50 (HCT-116 cells) [µM] | RF (reversal fold activity) [1] | IC50 (HCT-116/ADR cells) [µM]
1 |  |  | COc1cccc2c1C(=O)c1c(O)c3c(c(O)c1C2=O)C[C@@](O)(C(=O)CO)C[C@@H]3O[C@H]1C[C@H](N)[C@H](O)[C@H](C)O1 [DOX, Doxorubicin, reference compound] | 1.15 ± 0.43 | 1 | 16.91 ± 0.14
2 | 100.0 | 100.0 | CS(=O)(=O)CCNCc1ccc(-c2ccc3ncnc(Nc4ccc(OCc5cccc(F)c5)c(Cl)c4)c3c2)o1 [Lapatinib, reference compound] |  |  | 
